# Measurements taken from ChEMBL document CHEMBL5120816, “Abietane diterpenes from Abies spectabilis and their anti-pancreatic cancer activity against the MIA PaCa-2 cell line” (Bioorg Med Chem Lett, 2022).
# Calls of active or inactive are those of the source. The calls are words filed in the database; no cut-off is given here.
# How the values were obtained:
# MIA PaCa-2 [1] = assay: Preferential cytotoxicity against human MIA PaCa-2 cells in nutrient-deprived medium; format: functional
# [2] = Toxicity against human MIA PaCa-2 cells in nutrient-rich medium (DMEM); format: cell-based
# MIA PaCa-2 [3] = assay: Induction of cellular morphology changes in human MIA PaCa-2 cells assessed as rounding of cells and membrane rupture at 6.25 to 10 uM incubated for 24 hrs in nutrient-deprived medium by ethidium bromide-acridine orange double staining based EVOS FL digital microscopy"; format: functional, cell-based; conditions: dose 6.25-10 µM, DDE = dose-dependent effect
# MIA PaCa-2 [4] = assay: Induction of cell death in human MIA PaCa-2 cells assessed as rounding of cells and membrane rupture at 5 uM incubated for 24 hrs in nutrient-deprived medium by ethidium bromide-acridine orange double staining based EVOS FL digital microscopy"; format: functional
# MIA PaCa-2 [5] = assay: Inhibition of cell migration of human MIA PaCa-2 cells assessed as open area level at 20 uM incubated for 24 hrs in nutrient-deprived medium by quantitative real-time cancer cell migration assay (reference value: 100%); format: functional; set-up: scale not given: the % may be the effect or the level left
# MIA PaCa-2 [6] = assay: Inhibition of cell migration of human MIA PaCa-2 cells assessed as open area level at 20 uM incubated for 48 hrs in nutrient-deprived medium by quantitative real-time cancer cell migration assay (reference value: 8.9%); format: functional; set-up: scale not given: the % may be the effect or the level left
# MIA PaCa-2 [7] = assay: […] in human MIA PaCa-2 cells assessed as membrane blebbing , cell rupture and leakage of intracellular components into the medium at 20 uM incubated for 24 hrs in nutrient-deprived medium by Hoechst 33342 staining based assay"; format: functional
# MIA PaCa-2 [8] = assay: Induction of apoptosis in human MIA PaCa-2 cells assessed as down regulation of Bcl2 expression at 10 to 20 uM incubated for 24 hrs in nutrient-deprived medium by Western blot analysis; format: functional, cell-based; conditions: dose 10-20 µM
# MIA PaCa-2 [9] = assay: Induction of apoptosis in human MIA PaCa-2 cells assessed as down regulation of Bcl-xL expression at 10 to 20 uM incubated for 24 hrs in nutrient-deprived medium by Western blot analysis; format: functional, cell-based; conditions: dose 10-20 µM
# MIA PaCa-2 [10] = assay: Induction of apoptosis in human MIA PaCa-2 cells assessed as down regulation of caspase-3 expression at 10 to 20 uM incubated for 24 hrs in nutrient-deprived medium by Western blot analysis; format: functional, cell-based; conditions: dose 10-20 µM
# MIA PaCa-2 [11] = assay: Inhibition of AKT S473 phosphorylation in human MIA PaCa-2 cells at 10 to 20 uM incubated for 6 hrs in nutrient-deprived medium by Western blot analysis; format: cell-based; conditions: dose 10-20 µM
# [12] = target: Serine/threonine-protein kinase mTOR (Homo sapiens) (UniProt P42345); assay: Inhibition of mTOR S2481 phosphorylation in human MIA PaCa-2 cells at 10 to 20 uM incubated for 6 hrs in nutrient-deprived medium by Western blot analysis; format: cell-based; conditions: dose 10-20 µM
# [13] = Effect on total AKt protein level in human MIA PaCa-2 cells at 10 to 20 uM incubated for 6 hrs in nutrient-deprived medium by Western blot analysis; format: toxicity, cell-based; conditions: mia paca-2, 6 h, dose 10-20 µM
# [14] = Effect on total mTOR protein level in human MIA PaCa-2 cells at 10 to 20 uM incubated for 6 hrs in nutrient-deprived medium by Western blot analysis; format: toxicity, cell-based; conditions: mia paca-2, 6 h, dose 10-20 µM
# MIA PaCa-2 [15] = assay: Down regulation of autophagy marker expression in human MIA PaCa-2 cells assessed as reduction in Atg5 expression at 10 to 20 uM in nutrient-deprived medium by Western blot analysis; format: functional, cell-based; conditions: dose 10-20 µM
# MIA PaCa-2 [16] = assay: Down regulation of autophagy marker expression in human MIA PaCa-2 cells assessed as reduction in Atg7 expression at 10 to 20 uM in nutrient-deprived medium by Western blot analysis; format: functional, cell-based; conditions: dose 10-20 µM
# MIA PaCa-2 [17] = assay: Down regulation of autophagy marker expression in human MIA PaCa-2 cells assessed as reduction in Atg12 expression at 10 to 20 uM in nutrient-deprived medium by Western blot analysis; format: functional, cell-based; conditions: dose 10-20 µM
# MIA PaCa-2 [18] = assay: Down regulation of autophagy marker expression in human MIA PaCa-2 cells assessed as reduction in LC3-I expression at 10 to 20 uM in nutrient-deprived medium by Western blot analysis; format: functional, cell-based; conditions: dose 10-20 µM
# MIA PaCa-2 [19] = assay: Down regulation of autophagy marker expression in human MIA PaCa-2 cells assessed as reduction in LC3-II expression at 10 to 20 uM in nutrient-deprived medium by Western blot analysis; format: functional, cell-based; conditions: dose 10-20 µM
SMILES,PC50 (MIA PaCa-2 [1]) [µM],Activity [2],further results
C[C@]12CCC[C@@](C)(C(=O)O)[C@@H]1CCC1=CC(=O)CC[C@@H]12,55.5,Non-Toxic,–
CC(C)[C@]1(O)C=C2C(=O)C[C@@H]3[C@](C)(CCC[C@@]3(C)C(=O)O)[C@H]2CC1,>100,Non-Toxic,–
C=C/C(C)=C\C[C@@H]1[C@@]2(C)CCCC(C)(C)[C@@H]2CC(=O)[C@@]1(C)O,15.2,Non-Toxic,–
CC(C)[C@@]1(O)C=C2C(=O)C[C@@H]3[C@](C)(CCC[C@@]3(C)C(=O)O)[C@H]2CC1,70.7,Non-Toxic,–
CC(C)[C@@]1(O)C=C2C(=O)C[C@H]3[C@](C)(COC(=O)CCC(=O)O)CCC[C@]3(C)[C@H]2CC1,82.9,Non-Toxic,–
C[C@@]1(CO)CCC[C@]2(C)[C@H]3CCC(=O)C=C3CC[C@@H]12,35.8,Non-Toxic,–
CC(C)C1=CC[C@H]2C(=C1)C(=O)C[C@@H]1[C@]2(C)CCC[C@@]1(C)C(=O)O [ABIESADINE E],42.3,Non-Toxic,–
COc1cc(C[C@H]2C(=O)OC[C@@H]2Cc2ccc(OC)c(OC)c2)ccc1O [ARCTIGENIN],0.7,Non-Toxic,–
CC(C)c1ccc2c(c1)CC[C@H]1[C@](C)(C(=O)O)CCC[C@]21C [DEHYDROABIETIC ACID],16.9,Non-Toxic,–
CC(C)c1ccc2c(c1)CC[C@H]1[C@](C)(CO)CCC[C@]21C [POMIFERIN A],6.6,Non-Toxic,Activity (MIA PaCa-2 [3]): Dde; Activity (MIA PaCa-2 [4]): 100%; Activity (MIA PaCa-2 [5]): 64%; Activity (MIA PaCa-2 [6]): 30.8%; Activity (MIA PaCa-2 [7]): Active; Activity (MIA PaCa-2 [8]): Active; Activity (MIA PaCa-2 [9]): Active; Activity (MIA PaCa-2 [10]): Active; inhibition (MIA PaCa-2 [11]): Active; inhibition [12]: Active; Activity [13]: Non-Toxic; Activity [14]: Non-Toxic; Activity (MIA PaCa-2 [15]): Active; Activity (MIA PaCa-2 [16]): Active; Activity (MIA PaCa-2 [17]): Active; Activity (MIA PaCa-2 [18]): Active; Activity (MIA PaCa-2 [19]): Active
